Results as given in ChEMBL document CHEMBL4699540, “Discovery and structure activity relationships of 7-benzyl triazolopyridines as stable, selective, and reversible inhibitors of myeloperoxidase” (Bioorg Med Chem, 2020).

Legend:
[1] = Stability of compound at pH 1 assessed as half life; assay type: physicochemical; conditions: buffer
[2] = Metabolic stability in human liver microsomes assessed as compound remaining; assay type: ADME, Microsome; further: time not given here
[3] = Metabolic stability in rat liver microsomes assessed as compound remaining; assay type: ADME, Microsome
[4] = Metabolic stability in mouse liver microsomes assessed as compound remaining; assay type: ADME, Microsome; further: time not given here
[5] = Permeability of compound at pH 5.5 by PAMPA assay; assay type: ADME; conditions: read-out: permeability
[6] = molecular target: T1, Cytochrome P450 2C8 (Homo sapiens, UniProt P10632); assay: Inhibition of CYP2C8 (unknown origin); assay type: ADME
T1 sequence (P10632 whole entry): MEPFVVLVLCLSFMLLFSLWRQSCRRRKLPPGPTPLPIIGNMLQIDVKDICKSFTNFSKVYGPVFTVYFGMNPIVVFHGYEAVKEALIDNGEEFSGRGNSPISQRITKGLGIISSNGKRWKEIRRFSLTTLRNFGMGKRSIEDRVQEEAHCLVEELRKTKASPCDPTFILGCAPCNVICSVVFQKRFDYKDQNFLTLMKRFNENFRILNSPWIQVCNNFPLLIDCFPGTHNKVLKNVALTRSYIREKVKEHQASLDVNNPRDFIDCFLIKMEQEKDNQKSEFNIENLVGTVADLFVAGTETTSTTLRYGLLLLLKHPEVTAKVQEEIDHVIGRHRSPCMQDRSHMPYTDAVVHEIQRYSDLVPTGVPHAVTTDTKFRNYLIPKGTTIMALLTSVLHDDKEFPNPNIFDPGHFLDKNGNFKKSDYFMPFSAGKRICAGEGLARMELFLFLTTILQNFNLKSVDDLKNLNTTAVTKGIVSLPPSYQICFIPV

[7] = molecular target: Cytochrome P450 3A4 (Homo sapiens, UniProt P08684); assay: Inhibition of CYP3A4 (unknown origin); assay type: ADME
[8] = Cmax in CD-1 mouse at 3 mg/kg, po by LC/MS analysis; assay type: ADME, organism-based; set-up: route oral, dose 3 mg/kg; conditions: in vivo
[9] = AUCtot in CD-1 mouse at 3 mg/kg, po by LC/MS analysis; assay type: ADME, organism-based; set-up: time AUCmax, route oral, dose 3 mg/kg; conditions: in vivo
[10] = Protein binding in mouse plasma assessed as free fraction; assay type: ADME, cell-free
[11] = molecular target: T2, Eosinophil peroxidase (Homo sapiens, UniProt P11678); assay: Inhibition of human EPX bromination activity using tyrosine as substrate by measuring 3-bromo tyrosine formation incubated for 10 mins
T2 sequence (P11678 whole entry): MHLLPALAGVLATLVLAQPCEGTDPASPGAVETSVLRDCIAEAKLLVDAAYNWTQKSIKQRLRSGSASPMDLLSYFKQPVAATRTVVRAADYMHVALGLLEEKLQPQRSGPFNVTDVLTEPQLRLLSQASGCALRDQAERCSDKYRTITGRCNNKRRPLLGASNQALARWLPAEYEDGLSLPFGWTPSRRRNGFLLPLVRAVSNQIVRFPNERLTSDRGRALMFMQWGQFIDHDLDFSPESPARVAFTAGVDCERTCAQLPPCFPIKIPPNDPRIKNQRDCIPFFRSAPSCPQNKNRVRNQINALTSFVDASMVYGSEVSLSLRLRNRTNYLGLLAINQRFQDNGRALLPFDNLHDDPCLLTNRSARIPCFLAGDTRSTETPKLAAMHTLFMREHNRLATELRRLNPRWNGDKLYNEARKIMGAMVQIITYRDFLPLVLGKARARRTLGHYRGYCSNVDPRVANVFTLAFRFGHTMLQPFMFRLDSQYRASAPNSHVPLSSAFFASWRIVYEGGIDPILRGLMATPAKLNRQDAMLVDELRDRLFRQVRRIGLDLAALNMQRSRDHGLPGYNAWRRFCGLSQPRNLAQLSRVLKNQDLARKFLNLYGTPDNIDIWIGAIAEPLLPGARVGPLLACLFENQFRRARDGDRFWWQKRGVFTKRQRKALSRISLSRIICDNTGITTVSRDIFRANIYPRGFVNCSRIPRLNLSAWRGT

[12] = molecular target: T3, Thyroid peroxidase (Homo sapiens, UniProt P07202); assay: Inhibition of TPO (unknown origin) using 3-iodo tyrosine as substrate incubated for 10 mins
T3 sequence (P07202 whole entry): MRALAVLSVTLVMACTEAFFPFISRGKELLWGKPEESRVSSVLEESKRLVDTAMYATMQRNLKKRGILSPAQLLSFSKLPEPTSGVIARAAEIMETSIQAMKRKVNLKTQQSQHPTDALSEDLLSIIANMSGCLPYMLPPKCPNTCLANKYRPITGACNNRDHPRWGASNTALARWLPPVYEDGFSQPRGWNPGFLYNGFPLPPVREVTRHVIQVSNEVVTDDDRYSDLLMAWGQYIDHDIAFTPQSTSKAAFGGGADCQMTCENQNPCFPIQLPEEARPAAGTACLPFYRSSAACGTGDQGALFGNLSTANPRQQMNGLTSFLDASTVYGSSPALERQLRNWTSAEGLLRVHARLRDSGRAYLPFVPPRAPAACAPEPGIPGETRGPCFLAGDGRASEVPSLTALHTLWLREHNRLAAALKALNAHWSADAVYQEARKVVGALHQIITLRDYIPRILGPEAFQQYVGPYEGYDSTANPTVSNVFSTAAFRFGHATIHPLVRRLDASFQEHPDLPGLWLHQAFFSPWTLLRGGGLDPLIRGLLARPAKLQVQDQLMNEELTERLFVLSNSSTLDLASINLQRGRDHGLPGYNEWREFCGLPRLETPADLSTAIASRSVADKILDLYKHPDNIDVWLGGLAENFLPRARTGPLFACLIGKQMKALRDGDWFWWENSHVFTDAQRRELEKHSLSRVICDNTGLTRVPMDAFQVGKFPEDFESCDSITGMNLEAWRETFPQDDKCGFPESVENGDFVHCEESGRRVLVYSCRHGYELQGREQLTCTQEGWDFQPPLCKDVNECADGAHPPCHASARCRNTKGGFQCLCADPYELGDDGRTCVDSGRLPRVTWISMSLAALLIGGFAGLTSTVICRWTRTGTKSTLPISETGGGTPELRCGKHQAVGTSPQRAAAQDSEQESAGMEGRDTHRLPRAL

[13] = Dissociation constant, pKa of the compound; assay type: physicochemical

Chain of Cytochrome P450 3A4 (P08684 whole entry): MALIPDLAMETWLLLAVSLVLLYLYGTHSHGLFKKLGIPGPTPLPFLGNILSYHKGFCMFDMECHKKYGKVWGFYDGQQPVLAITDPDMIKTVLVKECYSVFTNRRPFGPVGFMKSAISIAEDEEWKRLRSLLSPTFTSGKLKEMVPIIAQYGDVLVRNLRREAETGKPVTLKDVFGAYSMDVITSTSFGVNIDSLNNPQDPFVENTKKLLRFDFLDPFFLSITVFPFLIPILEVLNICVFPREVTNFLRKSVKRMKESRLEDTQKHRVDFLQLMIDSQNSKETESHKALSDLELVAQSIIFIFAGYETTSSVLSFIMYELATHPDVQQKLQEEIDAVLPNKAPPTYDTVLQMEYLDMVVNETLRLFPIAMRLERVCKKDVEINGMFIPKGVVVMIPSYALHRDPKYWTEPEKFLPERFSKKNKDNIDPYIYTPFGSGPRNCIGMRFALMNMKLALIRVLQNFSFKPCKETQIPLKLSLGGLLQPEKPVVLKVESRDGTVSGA

- half-life [1]: > 100 h
- Stabilty [2]: 98%
- Stabilty [3]: 86%
- Stabilty [4]: 39%
- Papp [5]: 42.7 ×10⁻⁶ cm/s
- IC50 [6]: > 10000 nM
- IC50 [7]: 6600 nM
- Cmax [8]: 13 µM
- AUC [9]: 47.9 µM·h
- fraction unbound [10]: 0.36
- IC50 [11]: 32 nM
- IC50 [12]: 2200 nM
- pKa [13]: 7.4
SMILES: Nc1cc(Cc2ccccc2)c2nn[nH]c2n1
